Test results from US4818754A, “Certain anti-inflammatory pyrazolo [4,3-b] pyridine 7-amines” (Beecham Group p.l.c. of Beecham House, priority 1986, dated 1989).

What was measured:
[1] = test system: swelling induced by oxazolone; experiment: Mouse oxazolone test (topical anti-inflammatory activity in mice sensitised to oxazolone, ear swelling); format: in vivo; settings: dose 200 μg/ear, 1 hour before challenge, 24 hours after, CDl male mice, *p < 0.1, **p < 0.01, ***p < 0.001
Description: Compounds were tested for topical anti-inflammatory activity in a model system using the mouse sensitised to oxazolone, by a method modified from that of Dietrich and Hess [Int. Arch. Allergy, 38, 246 (1970)].
Mice are sensitised with oxazolone (2 mg in 20 μl acetone) on a shaved area of the abdomen. CDl male mice of around 25 g bodyweight (8 animals per group) are used. 5 days later, the animals receive 10 μl tetrahydrofuran:methanol (1:1 v/v) on the right ear and the test compound in 10 μl of the same solvent on the left ear. 1 hour later, the animals are challenged with 100 μg oxazolone in 10 μl acetone on each ear. Negative control animals receive no treatment except 10 μl tetrahydrofuran:methanol at the initial time point. After 24 hours, the animals are killed and the ears are removed by cutting along the hairline and then weighed. The swelling induced by oxazolone is assessed as the increase in the weight of the right ears over that of the right ears of solvent-treated control animals, as a proportion of the weight of solvent-treated right ears. The swelling induced in the same animals in the presence of test compound is similarly the increase in the weight of the left ears over that of the left ears of the solvent-treated control animals, expressed as a proportion of the weight of solvent-treated left ears.
thus, % inhibition=([mean wt.left experimental ears-mean wt.left 100-control ears]/[mean wt.left control ears])×100 ([mean wt.right experimental ears-mean wt.right control ears]/[mean wt.right control ears])
(§1) This method reduces the contribution of inter-animal variations in responsiveness to the inflammatory stimulus, and also compensates for any consistent bias in cutting off left and right ears. The significance of the inhibition is calculated using a paired `t` test of the two values of proportional weight increases.

[2] = test system: swelling induced by cantharidin; experiment: Mouse cantharidin test (topical anti-inflammatory activity, mouse ear swelling); format: in vivo; settings: 24 hours, CDl male mice, **p < 0.01, ***p < 0.001; for inhibition in vivo at 500 µg/ear: dose 500 μg/ear; for inhibition in vivo at 200 µg/ear: dose 200 μg/ear
Description: Compounds were tested for topical anti-inflammatory activity in a cantharidin mouse ear screen, modified from Swingle, Reiter and Schwartzmiller [Arch. int. Pharmacodyn. 254, 168-176, 1981].
25 μg cantharidin (in 10 μl tetrahydrofuran:methanol, 1:1 v/v) is applied to both ears of CDl male mice, 25 g bodyweight. 8 animals are used per experimental group. Compounds are included in the irritant solution applied to the left ear only. Negative control animals receive no treatment except 10 μl solvent on each ear. After 24 hours, the animals are killed and the ears are removed by cutting along the hairline and then weighed. The swelling induced by cantharidin is assessed as the increase in the weight of the right ears over that of the right ears of solvent-treated control animals, as a proportion of the weight of solvent-treated right ears. The swelling induced in the same animals in the presence of test compound is similarly the increase in the weight of the left ears over that of the left ears of the solvent-treated control animals, expressed as a proportion of the weight of solvent-treated left ears.
thus, % inhibition=([means wt.left experimental ears-mean wt.left 100-control ears]/[mean wt.left control ears])×100 ([mean wt.right experimental ears-mean wt.right control ears]/[mean wt.right control ears])
as §1

| SMILES | % Inhibition [1] | inhibition in vivo at 500 µg/ear [2] | inhibition in vivo at 200 µg/ear [2] |
| --- | --- | --- | --- |
| CCOC(=O)CCCNc1ccnc2cn[nH]c12 [Example 2, Ethyl 4-(7-(1H-Pyrazolo[4,3-b]pyridyl)amino)butanoate] | 48.6% | 94.6% |  |
| Cc1cc(NCCCN2CCCC2=O)c2[nH]ncc2n1 [Example 3, 5-Methyl-7-(3-(1-(2-oxopyrrolidinyl))propylamino)-1H-pyrazolo[4,3-b]pyridine] | 44.1% |  | 75.3% |
| CCCCC(=O)OCCCNc1cc(C)nc2cn[nH]c12 [Example 4, 7-[3-Pentanoyloxypropylamino]-5-methyl-1H-pyrazolo[4,3-b]pyridine] |  |  | 69.9% |
| Cc1cc(NCCN2CCOCC2)c2[nH]ncc2n1 [Example 5, 7-[2-(N-Morpholino)ethylamino]-5-methyl-1H-pyrazolo [4,3-b]pyridine dihydrate] | 61.6% |  | 97.6% |
| CC(=O)OCCCNc1cc(C)nc2cn[nH]c12 [Example 6, 7-[3-Acetoxypropylamino]-5-methyl-1H-pyrazolo[4,3-b]-pyridine] | 53% |  | 70% |
| Cc1cc(NCCOC(=O)c2ccccc2)c2[nH]ncc2n1 [Example 7, 7-[2-Benzoyloxyethylamino]-5-methyl-1H-pyrazolo[4,3-b]pyridine] | 30% | 99.6% |  |
| O=C(CCCNc1ccnc2cn[nH]c12)NCc1ccccc1 [Example 8, (7-(1H-Pyrazolo[4,3,-b]pyridyl)amino)butanoic acid benzylamide] |  | 95% |  |
| CCCCC(=O)OCCNc1cc(C)nc2cn[nH]c12 [Example 9, 7-(2-Pentanoyloxyethylamino)-5-methyl-1H-pyrazolo[4,3-b]pyridine] |  |  | 69% |
| CCC(=O)OCCNc1cc(C)nc2cn[nH]c12 [Example 10, 7-[2-Propionyloxyethylamino]-5-methyl-1H-pyrazolo[4,3-b]pyridine] |  |  | 55% |
| CC(C)CCOC(=O)CCCNc1ccnc2cn[nH]c12 [Example 12, Isoamyl (7-(1H-pyrazolo[4,3-b]pyridyl)amino)butanoate] |  |  | 78% |
